Measurements: US12528778B2, “Microbiocidal derivatives” (SYNGENTA CROP PROTECTION AG, priority 2019, dated 2026)

Columns and labels:
Alternaria solani = Alternaria solani / tomato / leaf disc (early blight); format: in vivo; conditions: foliar, tomato leaf disks cv. Baby, inoculated 2 days after application, assessed 5-7 days after application, vs untreated control
Experimental: Example B1: Alternaria solani/Tomato/Leaf Disc (Early Blight) Tomato leaf disks cv. Baby are placed on agar in multiwell plates (24-well format) and sprayed with the formulated test compound diluted in water. The leaf disks are inoculated with a spore suspension of the fungus 2 days after application. The inoculated leaf disks are incubated at 23° C./21° C. […] […]-43, and P-44.

[1] = test system: Glomerella lagenarium (Colletotrichum lagenarium); test: Glomerella lagenarium (Colletotrichum lagenarium) / liquid culture (anthracnose); format: cell-based; conditions: Colletotrichum orbiculare, PDB liquid culture, 24° C., growth inhibition measured photometrically 3-4 days after application, vs untreated control
Experimental: (§1) Example B2: Glomerella lagenarium (Colletotrichum lagenarium)/Liquid Culture (Anthracnose) Conidia of the fungus from cryogenic storage are directly mixed into nutrient broth (PDB potato dextrose broth). After placing a (DMSO) solution of test compound into a microtiter plate (96-well format), the nutrient broth containing the fungal spores is added. The test plates are incubated at 24° C. and the inhibition of growth is measured photometrically 3-4 days after application. […] […]-49, and P-50.

[2] = test system: Blumeria graminis f. sp. tritici (Erysiphe graminis f. sp. tritici); test: Blumeria graminis f. sp. tritici / wheat / leaf disc preventative (powdery mildew on wheat); format: in vivo; conditions: foliar, wheat leaf segments cv. Kanzler, inoculated 1 day after application, assessed 6-8 days after application, vs untreated control
Experimental: Example B3: Blumeria graminis f. sp. tritici (Erysiphe graminis f. so. tritici)/Wheat/Leaf Disc Preventative (Powdery Mildew on Wheat) Wheat leaf segments cv. Kanzler are placed on agar in a multiwell plate (24-well format) and sprayed with the formulated test compound diluted in water. The leaf disks are inoculated by shaking powdery mildew infected plants above the test plates 1 day after application. The inoculated leaf disks are incubated at 20°° C. and 60% rh under a light regime of 24 h darkness followed by 12 h light/12 h darkness in a climate chamber and the activity of a compound is assessed as percent disease control compared to untreated when an appropriate level of disease damage appears on untreated check leaf segments (6-8 days after application). […]-45, and P-50.

[3] = test system: Monographella nivalis (Microdochium nivale); test: Monographella nivalis (Microdochium nivale) / liquid culture (foot rot cereals); format: cell-based; conditions: PDB liquid culture, 24° C., growth inhibition determined photometrically 4-5 days after application, vs untreated control
Experimental: as §1, with “B5: Monographella nivalis (Microdochium nivale)/Liquid” for “B2: Glomerella lagenarium (Colletotrichum lagenarium)/Liquid”, “(Foot Rot Cereals)” for “(Anthracnose)”, “determined” for “measured”, “4-5” for “3-4”

[4] = test system: Mycosphaerella arachidis (Cercospora arachidicola); test: Mycosphaerella arachidis (Cercospora arachidicola) / liquid culture (early leaf spot); format: cell-based; conditions: PDB liquid culture, 24° C., growth inhibition determined photometrically 4-5 days after application, vs untreated control
Experimental: Example B6: Mycosphaerella arachidis (Cercospora arachidicola)/Liquid Culture (Early Leaf Spot) Conidia of the fungus from cryogenic storage are directly mixed into nutrient broth (PDB potato dextrose broth). After placing a (DMSO) solution of test compound into a microtiter plate (96-well format), the nutrient broth containing the fungal spores is added. The test plates are incubated at 24° C. and the inhibition of growth is determined photometrically 4-5 days after application. […] […]-44, and P-48.

[5] = test system: Puccinia recondita f. sp. tritici; test: Puccinia recondita f. sp. tritici / wheat / leaf disc preventative (brown rust); format: in vivo; conditions: foliar, wheat leaf segments cv. Kanzler, inoculated 1 day after application, assessed 7-9 days after application, vs untreated control
Experimental: Example B8: Puccinia recondita f. sp. tritici/Wheat/Leaf Disc Preventative (Brown rust) Wheat leaf segments cv. Kanzler are placed on agar in multiwell plates (24-well format) and sprayed with the formulated test compound diluted in water. The leaf disks are inoculated with a spore suspension of the fungus 1 day after application. The inoculated leaf segments are incubated at 19° C. and 75% rh under a light regime of 12 h light/12 h darkness in a climate cabinet and the activity of a compound is assessed as percent disease control compared to untreated when an appropriate level of disease damage appears in untreated check leaf segments (7-9 days after application).

[6] = test system: Magnaporthe grisea (Pyricularia oryzae); test: whole plant or invertebrate; format: in vivo; conditions: foliar, read-out: control of Magnaporthe grisea
[7] = test system: Mycosphaerella graminicola (Septoria tritici); test: Mycosphaerella graminicola (Septoria tritici) / liquid culture (Septoria blotch); format: cell-based; conditions: Zymoseptoria tritici, PDB liquid culture, 24° C., growth inhibition determined photometrically 4-5 days after application, vs untreated control
Experimental: Example B12: Mycosphaerella graminicola (Septoria tritici)/Liquid Culture (Septoria Blotch) Conidia of the fungus from cryogenic storage are directly mixed into nutrient broth (PDB potato dextrose broth). After placing a (DMSO) solution of test compound into a microtiter plate (96-well format), the nutrient broth containing the fungal spores is added. The test plates are incubated at 24° C. and the inhibition of growth is determined photometrically 4-5 days after application. […] […]-48, and P-49.

[8] = test system: Botryotinia fuckeliana (Botrytis cinerea); test: Botryotinia fuckeliana (Botrytis cinerea) / liquid culture (gray mould); format: cell-based; conditions: 20 ppm; Vogels broth liquid culture, 24° C., growth inhibition determined photometrically 3-4 days after application; vs untreated control
Experimental: Example B13: Botryotinia fucleliana (Botrytis cinerea)/Liquid Culture (Gray Mould) Conidia of the fungus from cryogenic storage are directly mixed into nutrient broth (Vogels broth). After placing a (DMSO) solution of test compound into a microtiler plate (96-well format), the nutrient broth containing the fungal spores is added. The test plates are incubated at 24° C. and the inhibition of growth is determined photometrically 3-4 days after application. […] P-25.

| SMILES | pest or weed control at 200 ppm (Alternaria solani) [%] | inhibition of growth at 20 ppm [1] [%] | pest or weed control at 200 ppm [2] [%] | inhibition of growth at 20 ppm [3] [%] | inhibition of growth at 20 ppm [4] [%] | pest or weed control at 200 ppm [5] [%] | pest or weed control at 200 ppm [6] [%] | inhibition of growth at 20 ppm [7] [%] | control of Botryotinia fuckeliana [8] |
| --- | --- | --- | --- | --- | --- | --- | --- | --- | --- |
| COc1ncc(Nc2cc(F)cc(F)c2)nc1C(=O)NCC1(C)CCOC2(CCC2)C1 (centres unmarked) [Compound P-22, 6-(3,5-difluoroanilino)-3-methoxy-N-[(8-methyl-5-oxaspiro[3.5]nonan-8-yl)methyl]pyrazine-2-carboxamide] | ≥ 80 | ≥ 80 | ≥ 80 | ≥ 80 | ≥ 80 | ≥ 80 | ≥ 80 | ≥ 80 |  |
| COc1ncc(Nc2cc(F)cc(F)c2)nc1C(=O)NCC1(C(F)(F)F)CC1 [Compound P-25, 6-(3,5-difluoroanilino)-3-methoxy-N-[[1-(trifluoromethyl)cyclopropyl]methyl] pyrazine-2-carboxamide] | ≥ 80 | ≥ 80 | ≥ 80 | ≥ 80 | ≥ 80 | ≥ 80 | ≥ 80 | ≥ 80 | at least 80% |
| COc1ncc(Nc2cc(F)cc(F)c2)nc1C(=O)NC(C)(C)C [Compound P-38, N-tert-butyl-6-(3,5-difluoroanilino)-3-methoxy-pyrazine-2-carboxamide] | ≥ 80 | ≥ 80 | ≥ 80 | ≥ 80 | ≥ 80 | ≥ 80 | ≥ 80 | ≥ 80 |  |
| COc1ncc(Nc2cc(F)cc(F)c2)nc1C(=O)NCC(C)(C)C [Compound P-39, 6-(3,5-difluoroanilino)-N-(2,2-dimethylpropyl)-3-methoxy-pyrazine-2-carboxamide] | ≥ 80 | ≥ 80 | ≥ 80 | ≥ 80 | ≥ 80 | ≥ 80 | ≥ 80 | ≥ 80 |  |
| COc1ncc(Nc2cc(F)cc(F)c2)nc1C(=O)NC1CCC1(C)C (centres unmarked) [Compound P-43, 6-(3,5-difluoroanilino)-N-(2,2-dimethylcyclobutyl)-3-methoxy-pyrazine-2-carboxamide] | ≥ 80 | ≥ 80 | ≥ 80 | ≥ 80 | ≥ 80 | ≥ 80 | ≥ 80 | ≥ 80 |  |
